Here are results for 2 molecules from US20210386753A1, “METHODS OF ADMINISTERING INTRAVENOUS MELOXICAM PRE-OPERATIVELY AND IN COMBINATION WITH OTHER DRUGS” (BAUDAX BIO, INC., priority 2018, published 2021).

In data set [1] the test system is patients. The following applies: intravenous; Prescribing Information; cited from earlier work.
The nature of data set [2]: Plasma Tmax of meloxicam. It is filed as in vivo. The following applies: human, 30 mg, methods as disclosed herein (IV bolus).
Data set [3] concerns patients. Put plainly: Onset, peak and duration of analgesic effect. The class given is in vivo, human. As to conditions: meloxicam administration as disclosed herein (IV).
For data set [4] the following is noted: following oral administration, cited from earlier work.

Structures are written as SMILES. Read-outs that look alike come from different tables or passages of the source.

The term Tmax denotes the time from dosing to the highest level.

As to `O=C(c1ccccc1)c1ccc2n1CCC2C(=O)O` (centres unmarked) [ketorolac], in data set [1], the “time for the onset of pain relief” value was “up to 30 minutes”.

With `Cc1cnc(NC(=O)C2=C(O)c3ccccc3S(=O)(=O)N2C)s1` [meloxicam, 4-hydroxy-2-methyl-N-(5-methyl-2-thiazolyl)-2H-1,2-benzothiazine-3-carboxamide-1,1-dioxide], in data set [2], the Tmax lay within 4.8 to 9.6 min. Moreover, the therapeutic window result in data set [3] was “at least 24 hours”. Also, the figures for the “time of maximum observed plasma concentration (tmax)” value in data set [4] and in data set [4] (listed as oral meloxicam) were 5 to 7 h and 5 to 6 h, respectively.
